From patent publication US8642630B2, “Endogeneous repair factor production accelerators” (Ono Pharmaceutical Co., Ltd., priority 2002, dated 2014)

How the values were obtained:
[1] = system: normal human umbilical cord vein vascular endothelial cells and normal human skin fibroblasts; experiment: Measurement of angiogenesis acceleration action (in vitro), hollow organ formation, Example 9; assay type: cell-based; conditions: 10 days of culturing, FIG. 5
Protocol: An angiogenesis kit (manufactured by Kurabo; constituted from normal human umbilical cord vein vascular endothelial cells and normal human skin fibroblasts) was cultured for 3 hours, and then the culture medium (the medium for angiogenesis use attached to the angiogenesis kit was used as the culture medium and cultured at 37° C. under a moist environment of 5% carbon dioxide-95% air, and a carbon dioxide incubator BNA-121D was used as the incubator) was changed and an agent to be tested was added to each well (0.5 ml/well). The medium exchange was carried out also on the 3rd, 6th and 8th days after commencement of the culturing and the fresh agent to be tested was added. The kind and concentration of the agent to be tested were untreated; DMSO: 0.1%; α-CD: 0.0118, 0.118 and 1.18 mg/ml; PGE2-αCD: 1, 10 and 100 nmol/l; Compound 3 (EP2 agonist), Compound 4 (EP4 agonist), EP1 agonist and EP3 agonist: 1, 10 and 100 nmol/l, VEGF: 0.1, 1 and 10 ng/ml; and HGF: 0.1, 1 and 10 ng/ml, and culturing was carried out by using 3 wells for each concentration. Fixation was carried out 10 days after the commencement of culturing, and staining of hollow organ with anti-CD31 antibody was carried out by using a hollow organ staining kit (manufactured by Kurabo). As the evaluation, Chalkley Grid (a grid lens, Kurabo) was mounted on the eyepiece of a microscope, and the hollow organ formation was evaluated by counting intersections of the randomly arrange points of Chalkley Grid with the formed hollow organ (by referring to the evaluation method of J. Pathol., 177, 275-283 (1995)). The counting was carried out at 12 positions per well, and the total was calculated.
In this connection, Compound 3 as an EP2 agonist ((5Z,9β,11α,13E)-17,17-propano-11,16-dihydroxy-9-chloro-20-norprost-5,13-dienoic acid) was dissolved in dimethyl sulfoxide (DMSO) to prepare 10^−4, 10^−5 and 10^−6 mol/l solutions which were then used by diluting 1/1000 time with the culture medium.
Compound 4 as an EP4 agonist ((11α,13E,15α)-9-oxo-11,15-dihydroxy-16-(3-methoxymethylphenyl)-17,18,19,20-tetranor-5-thiaprost-13-enoic acid) was dissolved in dimethyl sulfoxide (DMSO) to prepare 10^−4, 10^−5 and 10^−6 mol/l solutions which were then used by diluting 1/1000 time with the culture medium.
The EP1 agonist ((13E)-(11α,15S,17S)-2,5-ethano-6,9-dioxo-11,15-dihydroxy-17,20-dimethylprost-13-enoic acid; the compound described in Example 1 in the specification of JP-A-11-322709) was dissolved in dimethyl sulfoxide (DMSO) to prepare 10^−4, 10^−5 and 10^−6 mol/l solutions which were then used by diluting 1/1000 time with the culture medium.
The EP3 agonist (11α,15α-dimethoxy-9-oxoprost-5Z,13E-dienoic acid; the compound described in Example 1 in the specification of WO98/34916) was dissolved in dimethyl sulfoxide (DMSO) to prepare 10^−4, 10^−5 and 10^−6 mol/l solutions which were then used by diluting 1/1000 time with the culture medium.
The PGE2-αCD was dissolved in distilled water for injection to prepare 10^−4, 10^−5 and 10^−6 mol/l solutions which were then used by diluting 1/1000 time with the culture medium.
As the VEGF (vascular endothelial growth factor), the 2 μg/ml solution of VEGF contained in the angiogenesis control reagent kit of Kurabo was diluted with the culture medium and used.
As the HGF (human hepatocyte growth factor), the 5 μg/ml solution of HGF purchased from R & D System-Funakoshi was diluted with the culture medium and used.
The counts of hollow organ formation in the untreated wells were compared with those of the wells treated with respective concentrations of test samples by Dunnett's test (two-sided test). The significance level was set to 5%.
(§1) In this connection, the data were shown by average value of 3 wells and standard deviation.

[2] = system: normal human umbilical cord vein vascular endothelial cells and normal human skin fibroblasts; experiment: Measurement of angiogenesis acceleration action (in vitro), hollow organ formation, Example 1; assay type: cell-based; conditions: 10 ng/ml; 10 days of culturing; FIG. 1
Protocol: An angiogenesis kit (manufactured by Kurabo; constituted from normal human umbilical cord vein vascular endothelial cells and normal human skin fibroblasts) was cultured for 3 hours, and then the culture medium (the medium for angiogenesis use attached to the angiogenesis kit was used as the culture medium and cultured at 37° C. under a moist environment of 5% carbon dioxide-95% air, and a carbon dioxide incubator BNA-121D was used as the incubator) was changed and an agent to be tested was added to each well (0.5 ml/well). The medium exchange was carried out also on the 3rd, 6th and 8th days after commencement of the culturing and the fresh agent to be tested was added. The kind and concentration of the agent to be tested were untreated, solvent (DMSO) 0.1%, Compound 1 10^−9, 10^−8 and 10^−7 mol/l, VEGF-A 0.1, 1 and 10 ng/ml and HGF 0.1, 1 and 10 ng/ml, and the culturing was carried out by using 3 wells for each concentration. Fixation was carried out 10 days after the commencement of culturing, and staining of hollow organ with anti-CD31 antibody was carried out by using a hollow organ staining kit (manufactured by Kurabo). As the evaluation, Chalkley Grid (a grid lens, manufactured by Kurabo) was mounted on the eyepiece of a microscope, and the hollow organ formation was evaluated by counting intersections of the randomly arrange points of Chalkley Grid with the formed hollow organ (by referring to the evaluation method of J. Pathol., 177, 275-283 (1995)). The counting was carried out at 12 positions per well, and the total was calculated.
As the agent to be tested, Compound 1 ((E)-[5-[2-[1-phenyl-1-(3-pyridyl)methylideneaminoxy]ethyl]-7,8-dihydronaphthalen-1-yloxy]acetic acid) was dissolved in dimethyl sulfoxide (DMSO) to prepare 10^−4, 10^−5 and 10^−6 mol/l solutions which were then used by diluting 1/1000 time with the culture medium.
As the VEGF-A (vascular endothelial growth factor-A), the 2 μg/ml solution of VEGF contained in the angiogenesis control reagent kit of Kurabo was diluted with the culture medium and used. […]

VEGF = experiment: Endogenous repair factor releasing action (in vitro), VEGF by ELISA, Example 10; assay type: cell-based, human; conditions: 100 nmol/l; for VEGF concentration in culture supernatant: after 72 hours of culturing, average of 3 wells ± SD; for VEGF concentration in supernatants, in words: vs untreated, Dunnett's test
Protocol: (§2) An angiogenesis kit (manufactured by Kurabo; constituted from normal human umbilical cord vein vascular endothelial cells and normal human skin fibroblasts) was cultured for 3 hours, and then the culture medium (the medium for angiogenesis use attached to the angiogenesis kit was used as the culture medium and cultured at 37° C. under a moist environment of 5% carbon dioxide-95% air, and a carbon dioxide incubator BNA-121D was used as the incubator) was changed and an agent to be tested was added to each well (0.5 ml/well). HGF and VEGF concentrations in the culture supernatants were measured 3 days after the commencement of the culturing. Kinds and concentrations of the agent to be tested were untreated; DMSO: 0.1%; PGE1-αCD: 100 nmol/l; PGE2-αCD: 100 nmol/l; and Compound 3 (EP2 agonist) and Compound 4 (EP4 agonist): 100 nmol/l, and the culturing was carried out by using 3 wells for each concentration. The HGF and VEGF concentrations were measured by using an ELISA kit (R % D system-Funakoshi).
(§3) In this connection, Compound 3 as an EP2 agonist ((5Z,9β,11α,13E)-17,17-propano-11,16-dihydroxy-9-chloro-20-norprost-5,13-dienoic acid) was dissolved in dimethyl sulfoxide (DMSO) to prepare a 10^−4 mol/l solution which was then used by diluting 1/1000 time with the culture medium.
(§4) Compound 4 as an EP4 agonist ((11α,13E,15α)-9-oxo-11,15-dihydroxy-16-(3-methoxymethylphenyl)-17,18,19,20-tetranor-5-thiaprost-13-enoic acid) was dissolved in dimethyl sulfoxide (DMSO) to prepare a […] solution which was then used by diluting 1/1000 time with the culture medium.
(§5) The PGE1-αCD and PGE2-αCD were dissolved in distilled water for injection to prepare 10^−4 mol/l solutions which were then used by diluting 1/1000 time with the culture medium.
(§6) HGF and VEGF concentrations in the supernatants of the solvent control group were compared with those of the agent-treated groups by Dunnett's test (two-sided test). The significance level was set to 5%.
as §1

[3] = system: mouse sponge transplantation model; experiment: Angiogenesis test using mouse sponge transplantation model, Example 8; assay type: in vivo; conditions: 14 days of repeated administration
Protocol: Under anesthesia, dorsal part of a mouse was incised and a discus urethane sponge (about 5 mm in thickness and 13 mm in diameter) was embedded therein. Administration of the agent was carried out by topically administering it directly into the sponge once a day for a total of 14 times starting on the day of the sponge transplantation model preparation, or on the operation-completed day and 7th day thereafter. On the 15th day after the sponge transplantation, the sponge containing granulation tissue was extracted and observed with the naked eye, and then its wet mass was measured. In addition, this was mixed with distilled water of 4 times larger amount than the wet mass, homogenized and centrifuged, and then the supernatant was subjected to the measurement of the hemoglobin content using Hemoglobin 13-Test Wako (manufactured by Wako Pure Chemical Industries).
• The polylactic acid-glycolic acid copolymer used in Preparation Example 2 was suspended in 0.2 w/v % Tween 80 solution (0.05 ml). In this connection, amount of the polylactic acid-glycolic acid copolymer is identical to the amount contained in Compound 1 MS (200 μg). Compound 1 (20 μg) Group: • Compound 1 (20 μg) was suspended in 0.2 w/v % Tween 80 solution (0.05 ml). Compound 1 (40 μg) Group:
Compound 1 (40 μg) was suspended in 0.2 w/v % Tween 80 solution (0.05 ml).
• Compound 1 (200 μg) was suspended in 0.2 w/v % Tween 80 solution (0.05 ml). Compound 1 MS (200 μg) group: • The microsphere preparation produced in Preparation Example 2 containing […] of Compound 1 was suspended in 0.2 w/v % Tween 80 solution (0.05 ml). Compound 1 MS (400 μg) Group: • The microsphere preparation produced in Preparation Example 2 containing 400 μg of Compound 1 was suspended in 0.2 w/v % Tween 80 solution (0.05 ml). Compound 3 (20 μg) Group: • Compound 3 (20 μg) was suspended in 0.2 w/v % Tween 80 solution (0.05 ml).

HGF = experiment: Endogenous repair factor releasing action (in vitro), HGF by ELISA, Example 10; assay type: cell-based, human; conditions: 100 nmol/l; for HGF concentration in culture supernatant: after 72 hours of culturing, average of 3 wells ± SD; for HGF concentration in supernatants, in words: vs untreated, Dunnett's test
Protocol: as §2, §3, §4, §5, §6, §1

[4] = 10 nmol/l and 100 nmol/l, vs untreated wells, Dunnett's test
[5] = 20 μg into the sponge once a day, 15th day

Compound: CCCCC[C@@H](/C=C/[C@H]1[C@H](OC)CC(=O)[C@@H]1C/C=C\CCCC(=O)O)OC [EP3 agonist, 11α,15α-dimethoxy-9-oxoprost-5Z,13E-dienoic acid, reference compound]
- hollow organ formation (Chalkley Grid count), in words ([1]; 1, 10 and 100 nmol/l): did not exert influence upon hollow organ formation

Compound: OC[C@H]1O[C@@H]2O[C@H]3[C@H](O)[C@@H](O)[C@@H](O[C@H]4[C@H](O)[C@@H](O)[C@@H](O[C@H]5[C@H](O)[C@@H](O)[C@@H](O[C@H]6[C@H](O)[C@@H](O)[C@@H](O[C@H]7[C@H](O)[C@@H](O)[C@@H](O[C@H]1[C@H](O)[C@H]2O)O[C@@H]7CO)O[C@@H]6CO)O[C@@H]5CO)O[C@@H]4CO)O[C@@H]3CO [α-CD]
- hollow organ formation (Chalkley Grid count), in words ([1]; 0.0118, 0.118 and 1.18 mg/ml): did not exert influence upon hollow organ formation

Compound: HGF: human hepatocyte growth factor purchased from R & D System-Funakoshi; positive control agent
- hollow organ formation (Chalkley Grid count), in words ([1]; 10 ng/ml): accelerated hollow organ formation
- hollow organ formation (Chalkley Grid count), in words [2]: accelerated hollow organ formation

Compound: CCC1(C(O)C/C=C/[C@@H]2[C@@H](C/C=C\CCCC(=O)O)[C@H](Cl)C[C@H]2O)CCC1 (stereo partly drawn) [Compound 3, (5Z,9β,11α,13E)-17,17-propano-11,16-dihydroxy-9-chloro-20-norprost-5,13-dienoic acid]
- VEGF concentration in culture supernatant (VEGF): 2762 ± 51 pg/mL
- VEGF concentration in supernatants, in words (VEGF): significantly increased HGF and VEGF concentrations
- hollow organ formation (Chalkley Grid count), in words [1, 4]: significantly accelerated hollow organ formation
- Hemoglobin content [3, 5]: 4.588 ± 0.488 mg/g wet tissue
- Sponge wet weight [3, 5]: 0.5193 ± 0.0792 g
- formation of granulation in the sponge, in words ([3]; 20 μg): formation of granulation was found
- hemoglobin concentration in the granulation tissue, in words ([3]; 20 μg, vs polymer group): significant increase in the concentration of hemoglobin
- HGF concentration in culture supernatant (HGF): 1865 ± 48 pg/mL
- HGF concentration in supernatants, in words (HGF): significantly increased HGF and VEGF concentrations

Compound: CCCC[C@H](C)C[C@H](O)/C=C/[C@H]1[C@H](O)CC(=O)[C@@H]1CC(=O)C1CCC(C(=O)O)CC1 (stereo partly drawn) [EP1 agonist, (13E)-(11α,15S,17S)-2,5-ethano-6,9-dioxo-11,15-dihydroxy-17,20-dimethylprost-13-enoic acid, reference compound]
- hollow organ formation (Chalkley Grid count), in words ([1]; 1, 10 and 100 nmol/l): did not exert influence upon hollow organ formation

Compound: COCc1cccc(C[C@H](O)/C=C/[C@H]2[C@H](O)CC(=O)[C@@H]2CCSCCCC(=O)O)c1 [Compound 4, (11α,13E,15α)-9-oxo-11,15-dihydroxy-16-(3-methoxymethylphenyl)-17,18,19,20-tetranor-5-thiaprost-13-enoic acid]
- VEGF concentration in culture supernatant (VEGF): 2936 ± 69 pg/mL
- VEGF concentration in supernatants, in words (VEGF): significantly increased HGF and VEGF concentrations
- hollow organ formation (Chalkley Grid count), in words [1, 4]: significantly accelerated hollow organ formation
- HGF concentration in culture supernatant (HGF): 379 ± 12 pg/mL
- HGF concentration in supernatants, in words (HGF): significantly increased HGF and VEGF concentrations
